Broadly, the Ki is a measure of affinity in units of concentration, obtained from inhibition or displacement. Lower therefore signals a stronger hold on the target.

Consider 7 compounds from EP1332762A1, “Method of treating hyperprolactinemia and prolactinomas” (Cedars-Sinai Medical Center, priority 1997, dated 1998).

Experiment [1] has as its system Cells derived from six prolactin-secreting pituitary adenomas. Put plainly: Reduction of prolactin secretion from cultured prolactinoma cells (PRL by immunoradiometric assay). The format is cell-based, human. The conditions noted are these: for suppressed prolactin secretion: cell cultures from tumor 1; for suppressed prolactin secretion / suppressed prolactin release / effect on prolactin release: 3 hours; for response of prolactin secretion: cells of the four large male tumors (tumors 1-4); for response of prolactin secretion / effect on prolactin release / effect on prolactin production: result in words; for suppressed prolactin release / effect on prolactin production: large tumor 4 cell cultures; for suppressed prolactin release / effect on prolactin release: 10-100 nM; for effect on prolactin release: adenomatous cell cultures of tumor 1.

Experiment [2] concerns the target hSSTR-1 (Homo sapiens, UniProt P30872). Nature of the experiment: Somatostatin receptor binding assay ([125I-Tyr11]somatostatin-14, membranes of transfected CHO-K1 cells). The conditions noted are these: radioligand 0.05 nM, 30 min at 30 °C.
Experiment [3] has as its target hSSTR-2 (Homo sapiens, UniProt P30874). Described as above. The conditions noted are these: radioligand 0.05 nM, 30 min at 30 °C.
For experiment [4], the target named is hSSTR-3 (Homo sapiens, UniProt P32745). Described as above. The conditions noted are these: radioligand 0.05 nM, 30 min at 30 °C.
The target in experiment [5] is hSSTR-4 (Homo sapiens, UniProt P31391). Described as above. The conditions noted are these: radioligand 0.05 nM, 30 min at 30 °C.
Experiment [6] deals with hSSTR-5 (Homo sapiens, UniProt P35346). The description is as above. The conditions noted are these: radioligand 0.05 nM, 30 min at 30 °C.

Positions of bridges follow the written chain, without caps; N, C: chain ends. Non-standard residues stand in square brackets, D forms with d. Residues, ends and D or L forms follow the SMILES beside them.

hSSTR-2, sequence (P30874 whole entry): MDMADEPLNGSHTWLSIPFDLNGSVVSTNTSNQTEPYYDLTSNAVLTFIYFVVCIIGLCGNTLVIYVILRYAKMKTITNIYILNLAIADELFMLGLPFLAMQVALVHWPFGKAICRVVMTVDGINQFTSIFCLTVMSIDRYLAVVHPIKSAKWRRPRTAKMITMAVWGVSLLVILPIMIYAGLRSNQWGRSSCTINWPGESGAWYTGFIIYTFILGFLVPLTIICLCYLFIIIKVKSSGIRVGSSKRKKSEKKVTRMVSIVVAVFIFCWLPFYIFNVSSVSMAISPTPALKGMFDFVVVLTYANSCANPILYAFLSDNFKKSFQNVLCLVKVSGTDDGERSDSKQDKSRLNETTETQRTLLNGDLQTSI
hSSTR-5, sequence (P35346 whole entry): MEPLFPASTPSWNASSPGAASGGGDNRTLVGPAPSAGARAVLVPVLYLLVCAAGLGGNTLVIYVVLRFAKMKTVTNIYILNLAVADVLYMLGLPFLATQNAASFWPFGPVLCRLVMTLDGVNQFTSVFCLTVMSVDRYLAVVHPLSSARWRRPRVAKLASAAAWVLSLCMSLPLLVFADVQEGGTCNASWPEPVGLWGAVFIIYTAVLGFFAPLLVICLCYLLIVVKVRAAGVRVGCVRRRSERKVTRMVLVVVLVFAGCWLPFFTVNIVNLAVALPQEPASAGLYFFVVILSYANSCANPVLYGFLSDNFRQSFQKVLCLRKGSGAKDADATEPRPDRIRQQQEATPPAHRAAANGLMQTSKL
hSSTR-3, sequence (P32745 whole entry): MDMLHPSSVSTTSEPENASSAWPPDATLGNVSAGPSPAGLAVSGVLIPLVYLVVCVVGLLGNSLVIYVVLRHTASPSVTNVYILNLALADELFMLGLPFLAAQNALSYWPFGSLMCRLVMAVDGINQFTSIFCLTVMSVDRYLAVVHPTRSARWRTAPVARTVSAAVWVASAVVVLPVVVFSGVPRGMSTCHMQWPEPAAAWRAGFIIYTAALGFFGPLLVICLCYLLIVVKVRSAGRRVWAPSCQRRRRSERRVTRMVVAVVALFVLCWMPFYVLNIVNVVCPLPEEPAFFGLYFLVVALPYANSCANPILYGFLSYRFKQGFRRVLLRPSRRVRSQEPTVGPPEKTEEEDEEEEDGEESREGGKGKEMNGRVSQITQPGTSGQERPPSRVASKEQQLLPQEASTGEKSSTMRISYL
hSSTR-4, sequence (P31391 whole entry): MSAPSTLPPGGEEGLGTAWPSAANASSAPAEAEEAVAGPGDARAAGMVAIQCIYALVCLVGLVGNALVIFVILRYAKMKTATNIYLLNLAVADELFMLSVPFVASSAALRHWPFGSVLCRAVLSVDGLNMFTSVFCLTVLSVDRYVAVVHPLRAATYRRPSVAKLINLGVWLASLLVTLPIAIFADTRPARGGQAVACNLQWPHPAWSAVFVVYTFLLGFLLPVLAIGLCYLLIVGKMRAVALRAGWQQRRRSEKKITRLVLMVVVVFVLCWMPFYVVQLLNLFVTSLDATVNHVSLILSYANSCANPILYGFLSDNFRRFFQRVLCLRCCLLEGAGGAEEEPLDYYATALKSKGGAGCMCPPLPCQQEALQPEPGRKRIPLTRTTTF
hSSTR-1, sequence (P30872 whole entry): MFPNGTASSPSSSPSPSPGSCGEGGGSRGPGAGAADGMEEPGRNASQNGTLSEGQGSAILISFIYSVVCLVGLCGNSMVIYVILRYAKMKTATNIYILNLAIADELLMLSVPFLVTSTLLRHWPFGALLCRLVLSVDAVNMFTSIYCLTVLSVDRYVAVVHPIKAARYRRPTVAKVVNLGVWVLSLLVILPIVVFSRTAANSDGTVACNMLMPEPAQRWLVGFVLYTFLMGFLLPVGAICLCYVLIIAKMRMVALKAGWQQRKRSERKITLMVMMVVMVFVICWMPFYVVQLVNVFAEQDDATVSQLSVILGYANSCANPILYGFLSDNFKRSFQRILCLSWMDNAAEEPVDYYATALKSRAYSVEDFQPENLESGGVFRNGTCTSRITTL

Turning to `C[C@@H](O)[C@@H]1NC(=O)[C@H](CCCCN)NC(=O)[C@@H](Cc2c[nH]c3ccccc23)NC(=O)[C@H](Cc2ccccc2)NC(=O)[C@H](Cc2ccccc2)NC(=O)[C@@H](N)CSSC[C@@H](C(N)=O)NC(=O)[C@H](Cc2ccccc2)NC1=O` [BIM-23268] (H-CFF[dW]KTFC-NH2; disulfide 1-8), the suppressed prolactin secretion in experiment [1] (10 nM, p<0.05) amounted to 36%. Moreover, the “response of prolactin secretion” value in experiment [1] is given as “suppression of prolactin secretion”. Further, in experiment [1] (large tumor 3 cell cultures, 10 nM and 100 nM, dose dependent, p<0.05), the suppressed prolactin result is on record as “up to 29%”. Besides, in experiment [1] (p<0.05), the suppressed prolactin release result is reported as “more than 30%”. The Prolactin release inhibited in experiment [1] (tumor 2 cell cultures, 10 nM, versus controls, p<0.0005) was determined as 38%.
For `C[C@@H](O)[C@H](NC(=O)[C@H](Cc1ccccc1)NC(=O)[C@@H](NC(=O)[C@H](CCCCN)NC(=O)[C@@H](Cc1c[nH]c2ccccc12)NC(=O)[C@H](Cc1ccccc1)NC(=O)[C@H](Cc1ccccc1)NC(=O)[C@H](N)Cc1ccccc1)[C@@H](C)O)C(N)=O` [BIM-23052, H-D-Phe-Phe-Phe-D-Trp-Lys-Thr-Phe-Thr-NH2] (H-[dF]FF[dW]KTFT-NH2), the Ki worked out at 97.6 nM in experiment [2]; 12 nM in experiment [3]; 5.6 nM in experiment [4]; 127 nM in experiment [5]; 1.22 nM in experiment [6]. The same compound registered a suppressed prolactin secretion in experiment [1] (10 nM, p<0.05) of 33%. Further, in experiment [1], the “response of prolactin secretion” value is given as “suppression of prolactin secretion”. The suppressed prolactin release result in experiment [1] (p<0.05) was “more than 30%”.
As for `CC[C@@H]1NC(=O)[C@H](CCCCN)NC(=O)[C@@H](Cc2c[nH]c3ccccc23)NC(=O)[C@H](Cc2ccc(O)cc2)NC(=O)[C@@H](NC(=O)[C@H](N)Cc2ccccc2)CSSC[C@@H](C(=O)N[C@H](C(N)=O)[C@@H](C)O)NC1=O` [BIM-23023], the “effect on prolactin release” value in experiment [1] was “did not affect prolactin release”.
For the compound `C[C@@H](O)[C@@H]1NC(=O)[C@H](CCCCN)NC(=O)[C@@H](Cc2c[nH]c3ccccc23)NC(=O)[C@H](Cc2ccccc2)NC(=O)[C@@H](NC(=O)[C@H](N)Cc2ccccc2)CSSC[C@@H](C(=O)N[C@H](CO)[C@@H](C)O)NC1=O` [Octreotide], the “response of prolactin secretion” value in experiment [1] is “failed to respond”.
For the compound `CC[C@@H]1NC(=O)[C@H](CCCCN)NC(=O)[C@@H](Cc2c[nH]c3ccccc23)NC(=O)[C@H](Cc2ccc(O)cc2)NC(=O)[C@@H](NC(=O)[C@@H](Cc2ccccc2)NC(=O)CN2CCN(CCO)CC2)CSSC[C@@H](C(=O)N[C@H](C(N)=O)[C@@H](C)O)NC1=O` [BIM-23190], in experiment [1], the “effect on prolactin release” value is given as “did not affect prolactin release”, the “response of prolactin secretion” value is reported as “failed to respond” and the “effect on prolactin production” value is “modestly stimulated prolactin production”.
On the same counts, the results for `CC[C@@H]1NC(=O)[C@H](CCCCN)NC(=O)[C@@H](Cc2c[nH]c3ccccc23)NC(=O)[C@H](Cc2ccc(O)cc2)NC(=O)[C@@H](NC(=O)[C@@H](Cc2ccccc2)NS(=O)(=O)CCN2CCN(CCO)CC2)CSSC[C@@H](C(=O)N[C@H](C(N)=O)[C@@H](C)O)NC1=O` [BIM-23197] are “did not affect prolactin release”, “failed to respond” and “modestly stimulated prolactin production”.
As for `CC(C)[C@@H]1NC(=O)[C@H](CCCCN)NC(=O)[C@@H](Cc2c[nH]c3ccccc23)NC(=O)[C@H](Cc2ccc(O)cc2)NC(=O)[C@@H](NC(=O)[C@H](N)Cc2ccc3ccccc3c2)CSSC[C@@H](C(=O)N[C@H](C(N)=O)[C@@H](C)O)NC1=O` [Lanreotide], in experiment [3], the affinity corresponds to a Ki of 0.75 nM. Also, in experiment [1], the “effect on prolactin release” value is “did not affect prolactin release” and the “response of prolactin secretion” value is “failed to respond”.
